The target in this assay is T1, Tyrosine-protein kinase JAK3 (Homo sapiens, UniProt P52333).
T1 sequence (P52333 whole entry): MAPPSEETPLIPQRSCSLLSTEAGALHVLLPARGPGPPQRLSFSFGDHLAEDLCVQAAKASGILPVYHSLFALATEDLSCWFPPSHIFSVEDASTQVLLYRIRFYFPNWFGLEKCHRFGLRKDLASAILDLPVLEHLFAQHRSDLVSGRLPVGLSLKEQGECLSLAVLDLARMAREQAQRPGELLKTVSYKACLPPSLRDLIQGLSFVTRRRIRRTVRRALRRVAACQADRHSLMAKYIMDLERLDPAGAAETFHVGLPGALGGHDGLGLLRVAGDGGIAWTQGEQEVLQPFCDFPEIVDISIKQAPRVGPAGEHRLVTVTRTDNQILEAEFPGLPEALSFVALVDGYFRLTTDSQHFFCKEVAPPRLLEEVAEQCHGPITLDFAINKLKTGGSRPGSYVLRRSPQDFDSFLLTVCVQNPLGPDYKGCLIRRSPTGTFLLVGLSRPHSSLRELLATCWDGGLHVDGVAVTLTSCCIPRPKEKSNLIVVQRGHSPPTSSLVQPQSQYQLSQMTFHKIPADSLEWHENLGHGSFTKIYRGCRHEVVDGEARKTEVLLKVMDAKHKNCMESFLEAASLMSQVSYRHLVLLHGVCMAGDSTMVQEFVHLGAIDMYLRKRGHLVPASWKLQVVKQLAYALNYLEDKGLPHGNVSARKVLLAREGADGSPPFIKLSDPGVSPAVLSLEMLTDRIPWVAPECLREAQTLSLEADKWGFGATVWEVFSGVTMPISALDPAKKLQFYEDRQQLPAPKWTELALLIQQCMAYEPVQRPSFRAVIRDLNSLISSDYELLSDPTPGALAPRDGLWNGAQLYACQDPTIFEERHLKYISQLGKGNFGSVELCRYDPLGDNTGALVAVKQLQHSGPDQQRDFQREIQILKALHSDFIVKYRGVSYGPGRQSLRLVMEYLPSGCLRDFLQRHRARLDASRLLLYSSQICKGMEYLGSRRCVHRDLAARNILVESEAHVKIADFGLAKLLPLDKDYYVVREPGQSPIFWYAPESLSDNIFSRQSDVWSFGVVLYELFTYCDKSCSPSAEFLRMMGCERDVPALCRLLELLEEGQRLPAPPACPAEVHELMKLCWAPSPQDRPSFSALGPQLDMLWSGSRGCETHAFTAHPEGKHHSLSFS
The assay is described as follows: JAK3 Inhibition Assay. Conditions: pH 7.5; 22 °C. The procedure:
An ELISA assay was used to determine the ability of inhibitor to inhibit JAK3 […] activity. The compounds were incubated with enzyme, 10 uM ATP, and biotinylated peptide substrate. Phosphorylated tyrosine was then detected by sequential incubation with anti-phosphotyrosine antibody.

pIC50: −log10 of the molar value.

The pIC50 is the IC50 on a negative log10 scale, so that one unit is a factor of ten. High values mean a small IC50, low ones a large IC50. Molecule `O=C1c2ccccc2-c2n[nH]c3cccc1c23` gave a pIC50 of 6.02.

Source of the values: BindingDB's records for doi:10.1021/jm800662z (Johnson & Johnson Pharmaceutical, 2008).
